According to patent US11945821B1, “5-substituted aminopyrazino[2′,1′:2,3]imidazo[4,5-C][2,7]naphthyridine compounds as CK2 inhibitors” (KING FAISAL UNIVERSITY, priority 2023, dated 2024):

Tests used:
HCT116 (colon) = assay: In vitro cytotoxic activity (MTT) assay, HCT116; format: cell-based; conditions: Homo sapiens, HCT-116; HCT116 cells, exposed for 96 hours; read-out: IC50, 50% inhibition of cell proliferation, HCT116 (colon)
Protocol: (§1) Compounds 1-12 were screened for their in vitro cytotoxic activity utilizing a 3-(4,5-dimethyl-thiazol-2-yl)-2,5-diphenyltetrazolium bromide (MTT) assay against selected cancer human cell lines consisting of PC3 (prostate), HCT116 (colon), A375 (melanoma), H1299 (lung), MIAPaCa-2 (pancreas), HL60 (leukemia), MCF7 (breast), MDA-MB-231 (breast) (T. Mosmann, J. Immunol. Meth., 1983, 65, 55-63). The cells were cultured at 37° C. in RMPI1640 medium supplemented with 10% fetal bovine serum, 50 IU/mL penicillin, and 50 μg/mL streptomycin in a 5% CO2 incubator. All cells were sub-cultured 3 times/week by trypsinisation. Viable cells were seeded and allowed to adhere for 12 h before a test drug was added in 96-well plates at an initial density of 1.0×10^5 cells/mL. Tumour cell lines were separately exposed to various concentrations of the tested compounds followed by incubation at a temperature of 37° C. during 96 h inside a medium of fresh RMPI 1640. Cells were subsequently incubated at 37° C. using MTT at 0.5 mg/mL during 4 h. After removal of supernatant, formazan crystals were dissolved in isopropanol and the optical density was measured at 570 nm. CX-4945 was used as a positive control.

PC3 (prostate) = assay: In vitro cytotoxic activity (MTT) assay, PC3; format: cell-based; conditions: Homo sapiens, PC-3; PC3 cells, exposed for 96 hours; read-out: IC50, 50% inhibition of cell proliferation, PC3 (prostate)
Protocol: as §1

MIAPaCa-2 (pancreas) = assay: In vitro cytotoxic activity (MTT) assay, MIAPaCa-2; format: cell-based; conditions: Homo sapiens, MIA PaCa-2; MIAPaCa-2 cells, exposed for 96 hours; read-out: IC50, 50% inhibition of cell proliferation, MIAPaCa-2 (pancreas)
Protocol: as §1

H1299 (lung) = assay: In vitro cytotoxic activity (MTT) assay, H1299; format: cell-based; conditions: Homo sapiens, NCI-H1299; H1299 cells, exposed for 96 hours; read-out: IC50, 50% inhibition of cell proliferation, H1299 (lung)
Protocol: as §1

MCF7 (breast) = assay: In vitro cytotoxic activity (MTT) assay, MCF7; format: cell-based; conditions: Homo sapiens; MCF7 cells, exposed for 96 hours; read-out: IC50, 50% inhibition of cell proliferation, MCF7 (breast)
Protocol: as §1

MDA-MB-231 (breast) = assay: In vitro cytotoxic activity (MTT) assay, MDA-MB-231; format: cell-based; conditions: Homo sapiens; MDA-MB-231 cells, exposed for 96 hours; read-out: IC50, 50% inhibition of cell proliferation, MDA-MB-231 (breast)
Protocol: as §1

HL60 (leukemia) = assay: In vitro cytotoxic activity (MTT) assay, HL60; format: cell-based; conditions: Homo sapiens, HL-60; HL60 cells, exposed for 96 hours; read-out: IC50, 50% inhibition of cell proliferation, HL60 (leukemia)
Protocol: as §1

[1] = target: T1, recombinant human CK2 (RRββ-holoenzyme) (Homo sapiens, UniProt P68400); assay: CK2 Kinase Assay (33P-ATP, filter plate); format: biochemical; conditions: final ATP 15 μM, 10 min at 30° C., eight concentrations; read-out: protein kinase CK2 IC50
T1 construct: purchased Millipore
T1 sequence (P68400 whole entry): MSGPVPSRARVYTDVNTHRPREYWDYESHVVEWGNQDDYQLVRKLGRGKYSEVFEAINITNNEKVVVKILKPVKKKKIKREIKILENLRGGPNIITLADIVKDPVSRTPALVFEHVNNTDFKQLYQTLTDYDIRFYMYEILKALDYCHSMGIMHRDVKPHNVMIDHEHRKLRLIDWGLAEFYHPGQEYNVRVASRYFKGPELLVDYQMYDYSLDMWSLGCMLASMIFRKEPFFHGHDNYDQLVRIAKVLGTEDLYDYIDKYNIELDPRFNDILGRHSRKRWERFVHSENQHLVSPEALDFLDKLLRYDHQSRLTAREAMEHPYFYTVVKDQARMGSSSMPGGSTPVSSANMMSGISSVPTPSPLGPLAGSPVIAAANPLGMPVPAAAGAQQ
T1 sequence (P67870 whole entry partner): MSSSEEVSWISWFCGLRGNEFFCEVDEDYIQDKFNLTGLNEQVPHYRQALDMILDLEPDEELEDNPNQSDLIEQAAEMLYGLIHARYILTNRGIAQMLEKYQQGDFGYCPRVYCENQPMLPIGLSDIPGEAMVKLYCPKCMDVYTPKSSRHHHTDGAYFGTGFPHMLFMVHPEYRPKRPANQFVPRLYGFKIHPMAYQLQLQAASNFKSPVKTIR
Protocol: CK2 Kinase Assay was conducted using the protocol as described in Pierre F. et al; J. Med. Chem. 2011, 54, 635-654. The tested compounds in aqueous solution were added at a volume of 10 μL to a reaction mixture comprising 10 μL of assay dilution buffer (ADB; 20 mM MOPS, pH 7.2, 25 mM β-glycerol phosphate, 5 mM EGTA, 1 mM sodium orthovanadate, and 1 mM dithiothreitol), 10 μL of substrate peptide (RRRDDDSDDD, dissolved in ADB at a concentration of 1 mM), 10 μL of recombinant human CK2 (RRββ-holoenzyme, 25 ng dissolved in ADB; Millipore). Reactions were initiated by the addition of 10 μL of ATP solution (90% 75 mMMgCl2, 75 μM ATP (final ATP concentration:15 μM) dissolved in ADB; 10% [γ-33P] ATP (stock 1 mCi/100 μL; 3000 Ci/mmol (Perkin-Elmer) and maintained for 10 min at 30° C. The reactions were quenched with 100 μL of 0.75% phosphoric acid and then transferred to and filtered through a phosphor cellulose filter plate (Millipore). After washing each well five times with 0.75% phosphoric acid, the plate was dried under vacuum for 5 min and, following the addition of 15 μL of scintillation fluid to each well, the residual radioactivity was measured using a Wallac luminescence counter. The IC50 values were derived from eight concentrations of test inhibitors.

A375 (melanoma) = assay: In vitro cytotoxic activity (MTT) assay, A375; format: cell-based; conditions: Homo sapiens, A-375; A375 cells, exposed for 96 hours; read-out: IC50, 50% inhibition of cell proliferation, A375 (melanoma)
Protocol: as §1

**Q.** For `Clc1cccc(Nc2nc3c(nc4cnccn43)c3ccncc23)c1` [Example 1, N-(3-chlorophenyl)pyrazino[2′,1′:2.3]imidazo[4,5-c][2.7]naphthyridin-5-amine], which IC50 (HCT116 (colon)) is on record?
**A.** Its IC50 is 2100 nM.

**Q.** And the IC50 (PC3 (prostate))?
**A.** Its IC50 is 1800 nM.

**Q.** And the IC50 (MIAPaCa-2 (pancreas))?
**A.** Its IC50 is 1200 nM.

**Q.** And the IC50 (H1299 (lung))?
**A.** The IC50 was 1900 nM.

**Q.** And the IC50 (MCF7 (breast))?
**A.** The IC50 was 4.8 µM.

**Q.** What about the IC50 (MDA-MB-231 (breast)) of the same compound?
**A.** Its IC50 is 4.1 µM.

**Q.** What about the IC50 (HL60 (leukemia)) of the same compound?
**A.** The IC50 was 3.9 µM.

**Q.** What about the IC50 [1] of the same compound?
**A.** Its IC50 is 22 nM.

**Q.** What about the IC50 (A375 (melanoma)) of the same compound?
**A.** Its IC50 is 3.3 µM.
